This is an account of results in patent US20100076015A1, “Aminopyridine Derivatives” (VANTIA LIMITED, priority 2008, published 2010).

T1 sequence (P06870 25-262): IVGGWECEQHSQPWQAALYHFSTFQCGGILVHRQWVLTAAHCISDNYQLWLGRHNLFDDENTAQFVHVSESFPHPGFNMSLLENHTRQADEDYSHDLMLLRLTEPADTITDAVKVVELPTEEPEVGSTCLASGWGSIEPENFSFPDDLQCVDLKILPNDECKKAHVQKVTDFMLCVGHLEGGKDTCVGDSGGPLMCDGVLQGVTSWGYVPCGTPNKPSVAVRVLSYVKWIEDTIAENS

The test addresses T1, Human KLK1 (Homo sapiens, UniProt P06870).
T1 construct: purchased Callbiochem (Calbiochem)
Kind of test: Determination of the IC50 for KLK1 (fluorogenic substrate H-DVal-Leu-Arg-AFC). It counts as biochemical. As to conditions: 37° C. The essentials: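 IC50 values reflect residual human KLK1 activity, read as initial rate from optical absorbance change at 410 nm. Incubations ran at 37° C with H-DVal-Leu-Arg-AFC as substrate across a compound concentration series.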
`CC(C)N(CC(=O)N[C@@H](CC1CCCC2CCCCC21)C(=O)NCc1ccc(N)nc1)C(C)C` (stereo partly drawn) [Example 394, (S)—N-(6-Amino-pyridin-3-ylmethyl)-3-(decahydro-naphthalen-1-yl)-2-(2-diisopropylamino-acetylamino)-propionamide]: the IC50 turned out to be 8.4 nM. As for `CCC(C)[C@@H](N)C(=O)N[C@@H](Cc1ccc2ccccc2c1)C(=O)NCc1ccc(N)nc1` (stereo partly drawn) [Example 34, (R)-2-Amino-3-methyl-pentanoic acid {(S)-1-[(6-amino-pyridin-3-ylmethyl)-carbamoyl]-2-naphthalen-2-yl-ethyl}-amide], the figure is 3.3 nM.

In the case of `CC(C)N(C)[C@@H](C)C(=O)N[C@@H](Cc1ccc(F)cc1)C(=O)NCc1ccc(N)nc1` [Example 181, (S)—N-[(S)-1-[(6-Amino-pyridin-3-ylmethyl)-carbamoyl]-2-(4-fluoro-phenyl)-ethyl]-2-(isopropyl-methyl-amino)-propionamide], the IC50 was determined as 1.1 nM. As for `Cc1nc(N)ccc1CNC(=O)[C@H](Cc1ccc(Cl)c(Cl)c1)NC(=O)[C@H]1CCCCN1` [Example 201, (R)-Piperidine-2-carboxylic acid [(S)-1-[(6-amino-2-methyl-pyridin-3-ylmethyl)-carbamoyl]-2-(3,4-dichloro-phenyl)-ethyl]-amide], the figure is 1.3 nM; as for `CCN1CCC[C@@H]1C(=O)N[C@@H](Cc1ccc(F)cc1)C(=O)NCc1ccc(N)nc1` [Example 136, (R)-1-Ethyl-pyrrolidine-2-carboxylic acid [(S)-1-[(6-amino-pyridin-3-ylmethyl)-carbamoyl]-2-(4-fluoro-phenyl)-ethyl]-amide], 8.6 nM; as for `CC(C)N(C)[C@@H](C)C(=O)N[C@@H](Cc1ccc(Cl)c(Cl)c1)C(=O)NCc1ccc(N)nc1` [Example 401, (S)—N-[(S)-1-[(6-Amino-pyridin-3-ylmethyl)-carbamoyl]-2-(3,4-dichloro-phenyl)-ethyl]-2-(isopropyl-methyl-amino)-propionamide], 0.16 nM.

Consider `CC1CCCC(C)N1CC(=O)N[C@@H](CC1CCCCC1)C(=O)NCc1ccc(N)nc1` (stereo partly drawn) [Example 392, (S)—N-(6-Amino-pyridin-3-ylmethyl)-3-cyclohexyl-2-[2-(2,6-dimethyl-piperidin-1-yl)-acetylamino]-propionamide], for which the IC50 came to 47.2 nM. Compared with the last compound, the IC50 is about 300-fold higher.

Compound `Cc1cc[nH]c1C(=O)N[C@@H](Cc1ccccc1F)C(=O)NCc1ccc(N)nc1` [Example 265, 3-Methyl-1H-pyrrole-2-carboxylic acid [(S)-1-[(6-amino-pyridin-3-ylmethyl)-carbamoyl]-2-(2-fluoro-phenyl)-ethyl]-amide] displayed an IC50 of 21.6 nM. This IC50 lies about 2.2-fold lower than the previous one. Next, `CN(C)CC(=O)N[C@@H](C(=O)NCc1ccc(N)nc1)C(C1CCCCC1)C1CCCCC1` [Example 222, (R)—N-(6-Amino-pyridin-3-ylmethyl)-3,3-dicyclohexyl-2-(2-dimethylamino-acetylamino)-propionamide]: 39.7 nM. As for `COC(=O)c1ccc(C(=O)N[C@@H](Cc2cccc(C(F)(F)F)c2)C(=O)NCc2ccc(N)nc2)[nH]1` [Example 274, 5-[(S)-1-[(6-Amino-pyridin-3-ylmethyl)-carbamoyl]-2-(3-trifluoromethyl-phenyl)-ethylcarbamoyl]-1H-pyrrole-2-carboxylic acid methyl ester], the figure is 4.8 nM. Next, `C[C@@H](C(=O)N[C@@H](Cc1ccc(F)c(F)c1)C(=O)NCc1ccc(N)nc1)N(C)CC1CCCCC1` [Example 343, (S)—N-[(S)-1-[(6-Amino-pyridin-3-ylmethyl)-carbamoyl]-2-(3,4-difluoro-phenyl)-ethyl]-2-(cyclohexylmethyl-methyl-amino)-propionamide]: 91 nM. Consider `CCC(C)[C@@H](N)C(=O)N[C@@H](Cc1cccc(C#N)c1)C(=O)NCc1ccc(N)nc1` (stereo partly drawn) [Example 31, (R)-2-Amino-3-methyl-pentanoic acid [(S)-1-[(6-amino-pyridin-3-ylmethyl)-carbamoyl]-2-(3-cyano-phenyl)-ethyl]-amide], for which the IC50 came to 18.1 nM. This IC50 is about 5-fold lower than that of the compound before. As for `CN1Cc2ccccc2C[C@@H]1C(=O)N[C@@H](Cc1ccc(F)c(F)c1)C(=O)NCc1ccc(N)nc1` [Example 149, (R)-2-Methyl-1,2,3,4-tetrahydro-isoquinoline-3-carboxylic acid [(S)-1-[(6-amino-pyridin-3-ylmethyl)-carbamoyl]-2-(3,4-difluoro-phenyl)-ethyl]-amide], the figure is 36.8 nM; as for `CCC(C)[C@H](C(=O)N[C@@H](Cc1ccc(F)c(F)c1)C(=O)NCc1ccc(N)nc1)N(C)C` (stereo partly drawn) [Example 178, (R)-2-Dimethylamino-3-methyl-pentanoic acid [(S)-1-[(6-amino-pyridin-3-ylmethyl)-carbamoyl]-2-(3,4-difluoro-phenyl)-ethyl]-amide], 15.9 nM.

Compound `Nc1ccc(CNC(=O)[C@H](Cc2ccc(F)c(F)c2)NC(=O)c2cc3cc(F)ccc3[nH]2)cn1` [Example 326, 5-Fluoro-1H-indole-2-carboxylic acid [(S)-1-[(6-amino-pyridin-3-ylmethyl)-carbamoyl]-2-(3,4-difluoro-phenyl)-ethyl]-amide] registered a 50% inhibitory concentration (IC50) of 25.4 nM. This IC50 is about 1.6-fold higher than that of the compound before.

Compound `Cc1cc(C)c(C(=O)N[C@@H](Cc2ccc(C(C)(C)C)cc2)C(=O)NCc2ccc(N)nc2)[nH]1` [Example 256, 3,5-Dimethyl-1H-pyrrole-2-carboxylic acid [(S)-1-[(6-amino-pyridin-3-ylmethyl)-carbamoyl]-2-(4-tert-butyl-phenyl)-ethyl]-amide] had an IC50 of 122 nM. Consider `Cc1cccc(C[C@H](NC(=O)c2[nH]ccc2C)C(=O)NCc2ccc(N)nc2)c1` [Example 268, 3-Methyl-1H-pyrrole-2-carboxylic acid {(S)-1-[(6-amino-pyridin-3-ylmethyl)-carbamoyl]-2-m-tolyl-ethyl}-amide], for which the IC50 amounted to 7.7 nM. As for `Cc1cc(C(=O)N[C@@H](Cc2ccc(F)cc2)C(=O)NCc2ccc(N)nc2)n(C)n1` [Example 291, 2,5-Dimethyl-2H-pyrazole-3-carboxylic acid [(S)-1-[(6-amino-pyridin-3-ylmethyl)-carbamoyl]-2-(4-fluoro-phenyl)-ethyl]-amide], the figure is 165 nM. Next, `Cc1ccc(-c2ccc(C(=O)N[C@@H](Cc3cccc(Cl)c3)C(=O)NCc3ccc(N)nc3)[nH]2)cc1` [Example 297, 5-p-Tolyl-1H-pyrrole-2-carboxylic acid [(S)-1-[(6-amino-pyridin-3-ylmethyl)-carbamoyl]-2-(3-chloro-phenyl)-ethyl]-amide]: 40.1 nM; `Cc1cc(C)c(C(=O)N[C@@H](Cc2cc(F)cc(F)c2)C(=O)NCc2ccc(N)nc2)[nH]1` [Example 249, 3,5-Dimethyl-1H-pyrrole-2-carboxylic acid [(S)-1-[(6-amino-pyridin-3-ylmethyl)-carbamoyl]-2-(3,5-difluoro-phenyl)-ethyl]-amide]: 6.9 nM. Next, `Cc1nc(N)ccc1CNC(=O)[C@H](Cc1ccc(Cl)c(Cl)c1)NC(=O)[C@H](N)C1CCCCC1` [Example 198, (S)-2-((R)-2-Amino-2-cyclohexyl-acetylamino)-N-(6-amino-2-methyl-pyridin-3-ylmethyl)-3-(3,4-dichloro-phenyl)-propionamide]: 28 nM; `CN1CCC[C@@H]1C(=O)N[C@@H](Cc1ccncc1)C(=O)NCc1ccc(N)nc1` [Example 112, (R)-1-Methyl-pyrrolidine-2-carboxylic acid {(S)-1-[(6-amino-pyridin-3-ylmethyl)-carbamoyl]-2-pyridin-4-yl-ethyl}-amide]: 257 nM; `C[C@H](C(=O)N[C@@H](Cc1ccc(F)cc1)C(=O)NCc1ccc(N)nc1)N1CCCCC1` [Example 374, (R)—N-[(S)-1-[(6-Amino-pyridin-3-ylmethyl)-carbamoyl]-2-(4-fluoro-phenyl)-ethyl]-2-piperidin-1-yl-propionamide]: 52.7 nM. Consider `Cc1nc(N)ccc1CNC(=O)[C@H](Cc1cccc2ccccc12)NC(=O)[C@H]1CCCN1C` [Example 9, (R)-1-Methyl-pyrrolidine-2-carboxylic acid [(S)-1-[(6-amino-2-methyl-pyridin-3-ylmethyl)-carbamoyl]-2-naphthalen-1-yl-ethyl]-amide], for which the IC50 stood at 6.3 nM. As for `CC(C)N(C)[C@@H](CO)C(=O)N[C@@H](Cc1ccc(F)c(F)c1)C(=O)NCc1ccc(N)nc1` [Example 360, (S)—N-[(S)-1-[(6-Amino-pyridin-3-ylmethyl)-carbamoyl]-2-(3,4-difluoro-phenyl)-ethyl]-3-hydroxy-2-(isopropyl-methyl-amino)-propionamide], the figure is 20.2 nM. In turn, `CNCC(=O)N[C@@H](C(=O)NCc1ccc(N)nc1)C(C1CCCCC1)C1CCCCC1` [Example 221, (R)—N-(6-Amino-pyridin-3-ylmethyl)-3,3-dicyclohexyl-2-(2-methylamino-acetylamino)-propionamide] registered a 50% inhibitory concentration (IC50) of 50.5 nM.

Compound `CC(C)N(C)[C@@H](C)C(=O)N[C@@H](C(=O)NCc1ccc(N)nc1)C(O)C1CCCCC1` (stereo partly drawn) [Example 435, (S)—N-{(R)-1-[(6-Amino-pyridin-3-ylmethyl)-carbamoyl]-2-cyclohexyl-2-hydroxy-ethyl}-2-(isopropyl-methyl-amino)-propionamide] came in with an IC50 of 5 nM.

In turn, `Cc1cc(C)c(C(=O)N[C@@H](Cc2ccc3ccccc3n2)C(=O)NCc2ccc(N)nc2)[nH]1` [Example 257, 3,5-Dimethyl-1H-pyrrole-2-carboxylic acid {(S)-1-[(6-amino-pyridin-3-ylmethyl)-carbamoyl]-2-quinolin-2-yl-ethyl}-amide] had an IC50 of 12.1 nM. As for `CN1CCC[C@@H]1C(=O)N[C@@H](Cc1cc(F)c(F)cc1F)C(=O)NCc1ccc(N)nc1` [Example 94, (R)-1-Methyl-pyrrolidine-2-carboxylic acid [(S)-1-[(6-amino-pyridin-3-ylmethyl)-carbamoyl]-2-(2,4,5-trifluoro-phenyl)-ethyl]-amide], the figure is 12.5 nM; as for `Nc1ccc(CNC(=O)[C@H](Cc2cccc3ccccc23)NC(=O)c2cc3cc(F)ccc3[nH]2)cn1` [Example 301, 5-Fluoro-1H-indole-2-carboxylic acid {(S)-1-[(6-amino-pyridin-3-ylmethyl)-carbamoyl]-2-naphthalen-1-yl-ethyl}-amide], 11 nM.
